# In BindingDB's records for doi:10.1021/jo015665d (Merck Research Laboratories, 2001):
# Biological target: Polymerase acidic protein (Influenza A virus (strain A/Puerto Rico/8/1934 H1N1), UniProt P03433)
# Test: Inhibition of cap 1 ALMV primed Influenza transcriptase
row,SMILES,IC50 [µM]
1,COCOn1c(=O)c(=Cc2ccccc2)[nH]c(=CC(C)C)c1=O,> 200
2,COCOn1c(=O)c(=Cc2ccc(F)cc2)[nH]c(=CC(C)C)c1=O,> 200
3,COCOn1c(=O)c(=Cc2cccc(F)c2)[nH]c(=CC(C)C)c1=O,> 200
4,COCOn1c(=O)c(=Cc2ccccc2F)[nH]c(=CC(C)C)c1=O,> 200
5,COCOn1c(=O)c(=Cc2ccccc2)[nH]c(=Cc2ccc(F)cc2)c1=O,> 200
6,COCOn1c(=O)c(=Cc2ccc(OC)cc2)[nH]c(=CC(C)C)c1=O,> 200
7,COCOn1c(=O)c(=Cc2ccccc2)[nH]c(=Cc2ccc(OC)cc2)c1=O,> 200
8,"CC(C)C=c1[nH]c(=Cc2ccc(F)cc2)c(=O)[nH]c1=O [3-(4-fluorobenzylidene)-5-isobutylpyrazine-2,6(1H,3H)-dione]",> 200
9,"COCOn1c(=O)c(=CC(C)C)[nH]c(=CC(C)C)c1=O [(3Z)-5-isobutyl-1-(methoxymethoxy)-3-(2-methylpropylidene)pyrazine-2,6(1H,3H)-dione]",> 200
